Like-named read-outs stand apart in the source and are kept apart here.
What was measured:
[1] = Hygroscopicity of solid forms (statement only); type: physicochemical
[2] = 25° C. ± 2° C. 60% RH ± 5RH, 1 Month
[3] = 25° C. ± 2° C. 60% RH ± 5RH, 3 Months
[4] = 25° C. ± 2° C. 60% RH ± 5RH, Initial
[5] = 40° C. ± 2° C. 75% RH ± 5RH, 1 Month
[6] = 40° C. ± 2° C. 75% RH ± 5RH, 3 Months
[7] = 40° C. ± 2° C. 75% RH ± 5RH, Initial

With `C=CC(=O)N1CCC[C@@H](n2nc(-c3ccc(Oc4ccccc4)cc3)c3c(N)ncnc32)C1` [Form D18, Ibrutinib] the hygroscopicity [1] was “non-hygroscopic”, the “% Total Impurities” value [2] was 0.46% and the “% Water content” value [2] was 0.10%. For the same compound, the Description [2] was “White”, the “Octanoic acid content (%)” value [2] was 24.70% and the “% Total Impurities” value [3] was 0.39%. The “% Water content” value [3] was 0.19%, the Description [3] was “White” and the “Octanoic acid content (%)” value [3] was 25.57%. The “% Total Impurities” value [4] was 0.38%, the “% Water content” value [4] was 0.13% and the Description [4] was “White”. The “Octanoic acid content (%)” value [4] was 25.24%, the PXRD [4] was “Crystalline” and the “% Total Impurities” value [5] was 0.45%. For the same compound, the “% Water content” value [5] was 0.16%, the Description [5] was “White” and the “Octanoic acid content (%)” value [5] was 24.70%. The “% Total Impurities” value [6] was 0.45%, the “% Water content” value [6] was 0.29% and the Description [6] was “White”. The “Octanoic acid content (%)” value [6] was 24.99%, the “% Total Impurities” value [7] was 0.38% and the “% Water content” value [7] was 0.13%. For the same compound, the Description [7] was “White”, the “Octanoic acid content (%)” value [7] was 25.24% and the PXRD [7] was “Crystalline”.

For `C=CC(=O)N1CCC[C@@H](n2nc(-c3ccc(Oc4ccccc4)cc3)c3c(N)ncnc32)C1` [Form D19, Ibrutinib], the hygroscopicity [1] was “non-hygroscopic”, the “% Total Impurities” value [2] was 0.42% and the “% Water content” value [2] was 0.20%. For the same compound, the Description [2] was “Off-White”, the “Hexanoic acid content (%)” value [2] was 21.73% and the “% Total Impurities” value [3] was 0.42%. For the same compound, the “% Water content” value [3] was 0.09%, the Description [3] was “Off-White” and the “Hexanoic acid content (%)” value [3] was 21.24%. For the same compound, the “% Total Impurities” value [4] was 0.41%, the “% Water content” value [4] was 0.19% and the Description [4] was “Off-White”. For the same compound, the “Hexanoic acid content (%)” value [4] was 23.13%, the PXRD [4] was “Crystalline” and the “% Total Impurities” value [5] was 0.49%. For the same compound, the “% Water content” value [5] was 0.13%, the Description [5] was “Off-White” and the “Hexanoic acid content (%)” value [5] was 21.48%. For the same compound, the “% Total Impurities” value [6] was 0.50%, the “% Water content” value [6] was 0.11% and the Description [6] was “Off-White”. For the same compound, the “Hexanoic acid content (%)” value [6] was 20.79%, the “% Total Impurities” value [7] was 0.41% and the “% Water content” value [7] was 0.19%. For the same compound, the Description [7] was “Off-White”, the “Hexanoic acid content (%)” value [7] was 23.13% and the PXRD [7] was “Crystalline”.
